Test results reported in patent publication US20220288052A1, “COMPOUND FOR COMBINATION TREATMENT” (priority 2019, published 2022).
pKi: −log10 of the molar value. Where two headings read alike, the source gives them in different places.

Experiments:
[1] = Metabolic stability in human hepatocytes; type: in vitro ADME; details: 120 minutes at 10 μM
Protocol: The stability of compound (I) was tested in human hepatocytes incubating for 120 minutes at 10 μM. The compound was stable in human hepatocytes.

[2] = tested on: Salmonella typhimurium strains TA 100 and TA 98; experiment: Ames screening test; type: cell-based; details: 1.6 to 5000 μg/plate, presence or absence of S-9 mix
Protocol: Compound (I) was tested for genotoxicity in the Ames screening test using Salmonella typhimurium strains TA 100 and TA 98. Compound (I) was tested at dose levels of 1.6 to 5000 μg/plate in the presence or absence of S-9 mix.

5-HT transporter = 5-HT transporter (Homo sapiens, UniProt P31645); experiment: ^3H-Citalopram binding, human
Description: Compound (I) has been characterized as a monoamine reuptake inhibitor, based on the profile in a series of functional assays (Table 2).

plasma protein = experiment: Plasma protein binding by equilibrium dialysis, rat; type: in vitro ADME
Protocol: The plasma protein binding was tested in rat, mouse, dog and human plasma by equilibrium dialysis. The plasma protein binding of this compound is remarkably low (Table 24).

NMRI mice = experiment: Locomotor activity (mLA); type: in vivo, mouse
Protocol: FIG. 8: The effects of compound (I) on locomotor activity. Compound (I) p.o. in NMRI mice. TSE Motility.
Compound (I) was tested in a classical test often used to measure the ability of a compound to block the reuptake of 5-HT in vivo: nialamide-induced 5-HT syndrome (m5-HT). In addition, compound (I) was tested in a locomotor activity paradigm (mLA) as a measure of its ability to block the reuptake of DA and therefore induce motility. It is generally accepted that >60% DA transporter blockade is needed to induce increased motility in this test.

[3] = 14-day repeat-dose study in NMRI mice; type: in vivo, mouse
Protocol: In a 14-day repeat-dose study 4 groups of 8 male and 8 female NMRI mice were treated daily with compound (I) at doses of 15, 30, and 60 mg/kg p.o. (Groups 2, 3 and 4), or vehicle, 5% glucose s.c. (Group 1). A satellite group 90 mg/kg p.o. (group 5) was conducted accordingly to increase the exposure and efficacy.

C57 mice = experiment: Mouse tail suspension test (mTST); type: in vivo; details: i.p. 30 min
Protocol: C57 males, 25-28 g, Taconic, 16/8-06. Mice acclimatized to ground floor 5 days before testing. Mice saline injected once a day twice before test day. 22° C., N=7-8.

[4] = Tissue distribution after single dose, mouse; type: in vivo; details: po; for AUC(0-t): female, NMRI, mouse 10 mg/kg p.o., read-out: AUC(0-24 h); for half-life: female NMRI mouse 10 mg/kg p.o., read-out: T½ (converted)
Protocol: Compound (I) was dosed to female NMRI mice 10 mg/kg p.o. Plasma was taken 0.5, 1, 2, 4, 6 and 24 post dose. Brain, liver and lung were taken 1, 4 and 24 hours post dose.
AUC and T½ were calculated for plasma and organs, even though the data are very sparse for the organs.

[5] = tested on: brain levels of serotonin (5-HT); experiment: In vivo microdialysis, 5-HT; set-up: species or system rat
Protocol: The purpose of the present study was to examine, by in vivo microdialysis technique, the effects after administration of compound (I) on brain levels of serotonin, noradrenalin and dopamine within the ventral hippocampus (Hipp), prefrontal cortex (PFC), striatum (STR) and nucleus accumbens (N.Acc) of anaesthetized rats and mice. […] Compound (I) was tested following subcutaneous injections at dose levels between 0.25-30 mg/kg.

[6] = Exposure and tissue distribution after 14 days repeat dosing, rat; type: in vivo; details: for concentration at 2 h / Kp at 2 h: rat, sc, 2 h post last dose
Protocol: Single time point data is available from two 14 days repeat dose studies in mice and rats dosed to both sexes. The three low doses were performed together as one study and the top dose was performed at another occasion as a satellite study.
Samples were taken 2 h post last dose.
Plasma, brain and liver were taken 2 h post last dose.

[7] = 60 mg/kg p.o. 14 days (Group 4)
[8] = 90 mg/kg p.o. 14 days (Group 5)

Sequence of 5-HT transporter (P31645 whole entry): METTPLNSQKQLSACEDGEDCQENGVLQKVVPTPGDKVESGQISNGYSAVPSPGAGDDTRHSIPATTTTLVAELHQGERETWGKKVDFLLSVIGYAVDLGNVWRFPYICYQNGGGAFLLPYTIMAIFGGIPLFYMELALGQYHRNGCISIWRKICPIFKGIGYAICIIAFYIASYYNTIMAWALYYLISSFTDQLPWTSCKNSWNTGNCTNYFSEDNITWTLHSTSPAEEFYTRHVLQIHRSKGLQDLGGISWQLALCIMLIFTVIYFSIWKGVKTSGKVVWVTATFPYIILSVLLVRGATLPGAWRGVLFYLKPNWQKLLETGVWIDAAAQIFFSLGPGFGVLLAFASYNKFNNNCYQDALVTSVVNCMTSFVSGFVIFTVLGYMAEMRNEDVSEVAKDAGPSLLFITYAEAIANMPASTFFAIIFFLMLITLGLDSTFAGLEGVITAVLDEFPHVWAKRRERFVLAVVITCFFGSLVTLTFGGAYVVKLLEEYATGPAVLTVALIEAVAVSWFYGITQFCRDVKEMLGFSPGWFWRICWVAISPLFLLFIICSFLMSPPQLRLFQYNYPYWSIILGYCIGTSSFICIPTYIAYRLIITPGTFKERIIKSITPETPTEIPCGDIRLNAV

For `O=c1ccc2ccc(O[C@@H]3C[C@H]4CC[C@@H](C3)N4)cc2o1` [Compound (I), exo-7-(8-aza-bicyclo[3.2.1]oct-3-yloxy)-chromen-2-one], the “Stability in human hepatocytes” value [1] was “stable”, the “Mutagenic activity (genotoxicity)” value [2] was “did not show any evidence of mutagenic activity” and the pKi (5-HT transporter) was 9.62. It also gave a fraction unbound at 81 ng/ml (plasma protein; 81 ng/ml) of 0.566, a fraction unbound at 271 ng/ml (plasma protein; 271 ng/ml) of 0.65 and a fraction unbound at 813 ng/ml (plasma protein; 813 ng/ml) of 0.582. It also gave a fraction unbound at 2710 ng/ml (plasma protein; 2710 ng/ml) of 0.635, an MED (NMRI mice; mLA, 1, 3, 10 mg/kg p.o. −60 min + SCH23390 0.00375 mg/kg s.c. −60 min) of 10 mg/kg and an MED (NMRI mice; mLA, p.o. 0 min) of 10 mg/kg. For the same compound, the Activity [3, 7] was “increase in activity in both male and female”, the Body weight [3, 7] was “significant decrease in body weight in the female group” and the Relative liver weight [3, 7] was “significant decrease in relative liver weight in both sexes”. For the same compound, the Activity [3, 8] was “increase in activity in both male and female”, the “Body weight and relative liver weight” value [3, 8] was “significant decrease in body weight and in relative liver weight in both sexes” and the “Macroscopic findings at termination” value ([3]; 15 up to 90 mg/kg/day p.o. 14 days) was “no treatment-related macroscopic findings”. For the same compound, the MED (C57 mice) was under 5 mg/kg, the AUC(0-t) ([4]; Brain) was 9350 ng·h/mL and the AUC(0-t) ([4]; Liver) was 38500 ng·h/mL. It also gave an AUC(0-t) ([4]; Lung) of 35700 ng·h/mL, an AUC(0-t) ([4]; Plasma) of 2220 ng·h/mL and a half-life ([4]; Brain) of 3 h. The half-life ([4]; Liver) was 2.5 h, the half-life ([4]; Lung) was 2.2 h and the half-life ([4]; Plasma) was 1.1 h. For the same compound, the “5-HT (AUC0-160 min)” value ([5]; Hippocampus, 3 mg/kg s.c., 3 mg/kg) was 433±53%, the “5-HT (AUC0-160 min)” value ([5]; N.Acc, 10 mg/kg s.c.) was 151 ± 17% and the “5-HT (AUC0-160 min)” value ([5]; Pre-frontal cortex, 0.25 mg/kg s.c., 0.25 mg/kg) was 190±15%. For the same compound, the “5-HT (AUC0-160 min)” value ([5]; Pre-frontal cortex, 1 mg/kg s.c., 1 mg/kg) was 252±48%, the “5-HT (AUC0-160 min)” value ([5]; Pre-frontal cortex, 10 mg/kg s.c., 10 mg/kg) was 263±47% and the “5-HT (AUC0-160 min)” value ([5]; Pre-frontal cortex, WAY100365 0.1 mg/kg + compound (I) 0.25 mg/kg) was 253 ± 32%. For the same compound, the “5-HT (AUC0-160 min)” value ([5]; Striatum, 3 mg/kg s.c.) was 138 ± 31%, the “5-HT (AUC0-160 min)” value ([5]; Striatum, 10 mg/kg s.c.) was 170 ± 12% and the concentration at 2 h ([6]; Wistar, brain, Female rats, 5 mg/kg s.c. 14 days, read-out: Brain concentration) was 468 ng/g. It also gave a concentration at 2 h ([6]; Wistar, brain, Female rats, 10 mg/kg s.c. 14 days, read-out: Brain concentration) of 1020 ng/g, a concentration at 2 h ([6]; Wistar, brain, Female rats, 15 mg/kg s.c. 14 days, read-out: Brain concentration) of 1580 ng/g and a concentration at 2 h ([6]; Wistar, brain, Female rats, 25 mg/kg s.c. 14 days, read-out: Brain concentration) of 2080 ng/g. For the same compound, the concentration at 2 h ([6]; Wistar, brain, Male rats, 5 mg/kg s.c. 14 days, read-out: Brain concentration) was 519 ng/g, the concentration at 2 h ([6]; Wistar, brain, Male rats, 10 mg/kg s.c. 14 days, read-out: Brain concentration) was 1380 ng/g and the concentration at 2 h ([6]; Wistar, brain, Male rats, 15 mg/kg s.c. 14 days, read-out: Brain concentration) was 1950 ng/g. The concentration at 2 h ([6]; Wistar, brain, Male rats, 25 mg/kg s.c. 14 days, read-out: Brain concentration) was 2580 ng/g, the Kp at 2 h ([6]; Wistar, brain/plasma, Female rats, 5 mg/kg s.c. 14 days, read-out: Brain/plasma ratio) was 7 and the Kp at 2 h ([6]; Wistar, brain/plasma, Female rats, 10 mg/kg s.c. 14 days, read-out: Brain/plasma ratio) was 7. For the same compound, the Kp at 2 h ([6]; Wistar, brain/plasma, Female rats, 15 mg/kg s.c. 14 days, read-out: Brain/plasma ratio) was 6, the Kp at 2 h ([6]; Wistar, brain/plasma, Male rats, 5 mg/kg s.c. 14 days, read-out: Brain/plasma ratio) was 7 and the Kp at 2 h ([6]; Wistar, brain/plasma, Male rats, 10 mg/kg s.c. 14 days, read-out: Brain/plasma ratio) was 6. It also gave a Kp at 2 h ([6]; Wistar, brain/plasma, Male rats, 15 mg/kg s.c. 14 days, read-out: Brain/plasma ratio) of 5, a Kp at 2 h ([6]; Wistar, in vivo, Female rats, 5 mg/kg s.c. 14 days, read-out: Liver/plasma ratio) of 5 and a Kp at 2 h ([6]; Wistar, in vivo, Female rats, 10 mg/kg s.c. 14 days, read-out: Liver/plasma ratio) of 5. The Kp at 2 h ([6]; Wistar, in vivo, Female rats, 15 mg/kg s.c. 14 days, read-out: Liver/plasma ratio) was 5, the Kp at 2 h ([6]; Wistar, in vivo, Male rats, 5 mg/kg s.c. 14 days, read-out: Liver/plasma ratio) was 3 and the Kp at 2 h ([6]; Wistar, in vivo, Male rats, 10 mg/kg s.c. 14 days, read-out: Liver/plasma ratio) was 3. It also gave a Kp at 2 h ([6]; Wistar, in vivo, Male rats, 15 mg/kg s.c. 14 days, read-out: Liver/plasma ratio) of 2, a concentration at 2 h ([6]; Wistar, liver, Female rats, 5 mg/kg s.c. 14 days, read-out: Liver concentration) of 319 ng/g and a concentration at 2 h ([6]; Wistar, liver, Female rats, 10 mg/kg s.c. 14 days, read-out: Liver concentration) of 738 ng/g. It also gave a concentration at 2 h ([6]; Wistar, liver, Female rats, 15 mg/kg s.c. 14 days, read-out: Liver concentration) of 1520 ng/g, a concentration at 2 h ([6]; Wistar, liver, Male rats, 5 mg/kg s.c. 14 days, read-out: Liver concentration) of 259 ng/g and a concentration at 2 h ([6]; Wistar, liver, Male rats, 10 mg/kg s.c. 14 days, read-out: Liver concentration) of 737 ng/g. For the same compound, the concentration at 2 h ([6]; Wistar, liver, Male rats, 15 mg/kg s.c. 14 days, read-out: Liver concentration) was 921 ng/g, the concentration at 2 h ([6]; Wistar, plasma, Female rats, 5 mg/kg s.c. 14 days, read-out: Plasma concentration) was 67 ng/mL and the concentration at 2 h ([6]; Wistar, plasma, Female rats, 10 mg/kg s.c. 14 days, read-out: Plasma concentration) was 149 ng/mL. It also gave a concentration at 2 h ([6]; Wistar, plasma, Female rats, 15 mg/kg s.c. 14 days, read-out: Plasma concentration) of 281 ng/mL, a concentration at 2 h ([6]; Wistar, plasma, Male rats, 5 mg/kg s.c. 14 days, read-out: Plasma concentration) of 77 ng/mL and a concentration at 2 h ([6]; Wistar, plasma, Male rats, 10 mg/kg s.c. 14 days, read-out: Plasma concentration) of 242 ng/mL. For the same compound, the concentration at 2 h ([6]; Wistar, plasma, Male rats, 15 mg/kg s.c. 14 days, read-out: Plasma concentration) was 398 ng/mL, the Kp at 2 h ([6]; brain/plasma, Female rats, 25 mg/kg s.c. 14 days, read-out: Brain/plasma ratio) was 5 and the Kp at 2 h ([6]; brain/plasma, Male rats, 25 mg/kg s.c. 14 days, read-out: Brain/plasma ratio) was 5. For the same compound, the Kp at 2 h ([6]; in vivo, Female rats, 25 mg/kg s.c. 14 days, read-out: Liver/plasma ratio) was 6, the Kp at 2 h ([6]; in vivo, Male rats, 25 mg/kg s.c. 14 days, read-out: Liver/plasma ratio) was 3 and the concentration at 2 h ([6]; liver, Female rats, 25 mg/kg s.c. 14 days, read-out: Liver concentration) was 2310 ng/g. For the same compound, the concentration at 2 h ([6]; liver, Male rats, 25 mg/kg s.c. 14 days, read-out: Liver concentration) was 1560 ng/g, the concentration at 2 h ([6]; plasma, Female rats, 25 mg/kg s.c. 14 days, read-out: Plasma concentration) was 412 ng/mL and the concentration at 2 h ([6]; plasma, Male rats, 25 mg/kg s.c. 14 days, read-out: Plasma concentration) was 512 ng/mL. The “Linearity of kinetics after repeat dosing” value ([6]; rats, 5-25 mg/kg s.c. 14 days, 5% glucose) was “slight tendency to supra-linear kinetics”.
